The results in this text go back to patent US12617757B2, “Compounds and modules for inhibition of pre-miR-21 and their use in treatment of certain cancers” (University of Florida Research Foundation, Incorporated, priority 2019, dated 2026).

One test has as its target T1, RNase L (Homo sapiens, UniProt Q05823).
T1 sequence (Q05823 1-741): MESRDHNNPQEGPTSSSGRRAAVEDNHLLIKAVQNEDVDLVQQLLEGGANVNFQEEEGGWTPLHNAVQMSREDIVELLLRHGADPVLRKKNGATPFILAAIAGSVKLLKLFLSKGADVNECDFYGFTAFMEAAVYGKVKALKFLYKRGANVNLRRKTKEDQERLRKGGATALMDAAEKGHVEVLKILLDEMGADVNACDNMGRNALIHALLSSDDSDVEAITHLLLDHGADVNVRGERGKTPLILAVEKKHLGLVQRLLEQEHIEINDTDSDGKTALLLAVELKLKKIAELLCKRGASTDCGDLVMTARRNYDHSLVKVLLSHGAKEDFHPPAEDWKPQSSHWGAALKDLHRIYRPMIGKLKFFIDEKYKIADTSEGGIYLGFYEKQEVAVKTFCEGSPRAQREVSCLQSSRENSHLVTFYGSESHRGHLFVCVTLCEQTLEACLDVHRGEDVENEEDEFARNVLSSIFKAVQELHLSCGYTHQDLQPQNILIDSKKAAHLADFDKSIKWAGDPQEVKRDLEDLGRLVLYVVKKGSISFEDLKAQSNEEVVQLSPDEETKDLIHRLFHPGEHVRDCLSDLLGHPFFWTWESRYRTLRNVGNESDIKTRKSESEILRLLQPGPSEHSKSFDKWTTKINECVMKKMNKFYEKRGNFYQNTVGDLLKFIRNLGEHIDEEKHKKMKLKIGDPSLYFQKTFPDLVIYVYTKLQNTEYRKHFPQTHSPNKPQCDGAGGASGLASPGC
Description: In vitro fluorescence recovery assay with model RNA (RNase L activation). Format: biochemical. Details: GST; made in house. The method, then:
In Vitro Fluorescent RNA Cleavage. A model RNA hairpin^15 labeled with a 5′ 6-Fluorescein (6FAM) and 3′ Black Hole Quencher (IQ4) (5′ 6FAM-[…]-3′ IQ4; 5′ FAM/3′ BHQ model RNA) (SEQ ID NO: 3) or a miR-21 Hairpin Precursor RNA labeled with a 5′ 6-Fluorescein (6FAM) and 3′ Black Hole Quencher (IQ4) (5′ 6FAM-[…] […]-3′ IQ4; 5′ FAM/3′ BHQ miR-21 Hairpin Precursor RNA) (SEQ ID NO: 4) was purchased from Chemgenes with HPLC purification. Solutions of RNA (100 nM) were folded at 65° C. for 5 min and slowly cooled to room temperature in 1×RNase L Buffer (25 mM Tris-HCl, pH 7.4, 100 mM KCl) without MgCl2, β-mercaptoethanol or ATP. After folding, the RNA was supplemented with 10 mM MgCl2, fresh 7 mM β-mercaptoethanol, and 50 μM of ATP. Next, 100 nM of RNase L, prepared as described previously^22, and various concentrations of screening compounds were prepared in 1×RNase L Buffer and added to the RNA. […] The samples were incubated at room temperature for 60 min after which the fluorescence intensity (Ex: 485 nm, Em: 525 nm) was measured using a SpectraMax M5 plate reader or Biotek FLx800 plate reader. The percentage change in fluorescence intensity, where enhancement of fluorescence intensity was indicative of RNA cleavage, was determined by calculating the percentage change in sample fluorescent signals relative to the untreated fluorescent signal (Fi, %). […]

The subject of another test is pre-miR-21. Description: RT-qPCR of mature miR-21 and pre-miR-21 levels in MDA-MB-231 cells. Particulars: MDA-MB-231, RT-qPCR. Type of test: cell-based, human. The protocol: Cell culture compound treatment and transfection. For treatment with compounds, stocks in DMSO or water were diluted in growth media and added to cells for 24-72 h. For transfection of plasmid DNA to overexpress the miR-21 hairpin precursor in pcDNA3.1 (Addgene 21114) or pcDNA3-RNaseL (R. H. Silverman, Cleveland Clinic^24) in 24-well plates, Lipofectamine 2000 was used according to the manufacturer's protocol. After transfection, the medium was removed and replaced with growth medium containing compound prepared as described above. For transfection of a control (Santa Cruz Biotechnology: sc-37007) or RNase L targeting siRNA (Santa Cruz Biotechnology: sc-45965), Lipofectamine RNAiMAX Reagent was used for transfection of oligonucleotides, including 2′-5′ A4, according to the manufacturer's protocol.
In general terms: Quantitative PCR measures a nucleic acid by following its amplification.

The subject of the next test is pri-miR-21 RNA. Briefly: In vitro Ribo-SNAP. Format: biochemical. The settings on record: dose responsive treatment. The protocol:
In vitro Ribo-SNAP. The pri-miR-21 RNA (1 μM) was folded as described above. Dilutions of cleaver compounds (Bleomycin A5 or 10) were pre-activated by the addition of 1 eq Fe^2+ and added to the folded RNA in a total volume of 20 μL. After 30 min and 60 min, an additional equivalent of Fe^2+ was added and then the reaction mixtures were incubated at 37° C. overnight. After ethanol precipitation and quantification by Nanodrop, reverse transcription was performed using SuperScript™ III Reverse Transcriptase (ThermoFisher Scientific) per the manufacturer's protocol using a 5′ ^32P-labeled forward primer (˜10,000 counts). The A, T, G and C sequencing ladders were generated by using a ratio of ddNTP/dNTP of 3:1. The RNA was digested by the addition of RNase A and RNase H and incubated at 37° C. for 30 min. Then, an equal volume of Loading Buffer (95% […], 50 mM EDTA, 0.05% (w/v) bromophenol blue, 0.05% (w/v) xylene cyanol) was added to each reaction. The final mixture was resolved on a denaturing 15% polyacrylamide gel.

A further test has as its system pri-miR-21. Briefly: Ribo-SNAP-Map in MDA-MB-231 cells. Format: cell-based, human. The method, then:
Ribo-SNAP-Map. The MDA-MB-231 cells were grown in 100 mm dishes to ˜70% confluency and treated with cleaving compound (10) for 6 h. Total RNA was then extracted by treatment with TRIzol (ThermoFisher Scientific) and quantified by Nanodrop. Approximately 10 μg of total RNA was used for reverse transcription with a pri-miR-21 specific primer (5′-[…]-3′; 2 pmol) (SEQ ID NO: 12) using Superscript III (SSIII; Life Technologies). Approximately of 10 μg RNA with 2 pmol of gene-specific primer and 1 μL 10 mM dNTP Mix in a total volume of 13 μL was incubated at 65° C. for 5 min and then placed in ice for 5 min. Next, 4 μL 5×First-Strand Buffer, 1 μL 0.1 M DTT, 1 μL RNaseOUT and 1 μL SuperScript™ III RT were added and the mixture was incubated at 50° C. for 1 h, followed by 85° C. for 10 min. After digestion with RNase A and RNase H, the remaining cDNA was purified using RNAClean XP beads (Beckman Coulter; 1.8 volumes of beads and 3 volumes of isopropanol).
The purified cDNA was ligated with a 3′ adapter (5′ Phosphate NNN-[…]-3′ Biotin) (SEQ ID NO: 13) by T4 RNA ligase 1 (New England BioLabs; NEB) following the manufacturer's recommended protocol (2 μL 10×T4 RNA ligase buffer, 1 μL of 1 mM ATP, 10 μL 50% PEG 8000, 5 μL cDNA, 1 μL of 20 μM ssDNA adaptor, and 1 μL of T4 RNA ligase). Then, the cDNA ligated to the adaptor was purified with RNAClean XP beads as described above. PCR amplification was performed with the ligated cDNA by using Phusion polymerase (NEB) with cycling conditions of 98° C. for 20 s, 64° C. for 20 s and 72° C. for 90 s and the following forward (5′-[…]-3′) (SEQ ID NO: 14) and reverse (5′-[…]-3′) (SEQ ID NO: 15) primers. The PCR products were separated on a denaturing 15% polyacrylamide gel and the target band was excised from the gel and ethanol precipitated. The purified DNA was ligated into a vector using NEB's PCR Cloning Kit per the manufacturer's protocol. Antibiotic-resistant colonies were selected and subjected to Sanger sequencing by Genewiz. The cleavage sites and percentage were determined by comparing the cleaver treated samples and non-treated samples.

Structures are written as SMILES.

On to `CCOC(=O)C1=C(Nc2ccccc2)S/C(=C\c2ccc(OC)c(O)c2)C1=O` [Compound 3], for which, on RNase L, the “RNase L activation, dose-responsive measurements” value is given as “most active activator of RNase L”.

Consider `CCCN(CC(=O)N(CCC)CC(=O)N(CCC)CC(=O)N(CC(=O)NCCCCNCCCNC(=O)c1csc(-c2csc(CCNC(=O)C(NC(=O)C(C)[C@H](O)C(C)NC(=O)C(NC(=O)c3nc(C(CC(N)=O)NC[C@H](N)C(N)=O)nc(N)c3C)[C@@H](OC3OC(CO)C(O)C(O)C3OC3OC(CO)C(O)C(OC(N)=O)C3O)c3c[nH]cn3)C(C)O)n2)n1)Cc1cn(CCCNC(=O)CCCOc2ccc(-c3nc4cc(-c5ccc(N6CCN(C)CC6)cc5)ccc4[nH]3)cc2)nn1)C(=O)CN(Cc1cn(CCCNC(=O)CCCOc2ccc(-c3nc4cc(-c5ccc(N6CCN(C)CC6)cc5)ccc4[nH]3)cc2)nn1)C(C)=O` (stereo partly shown) [Compound 10], for which, in the test on pre-miR-21, the “effect on mature miR-21 levels” value was “decreases mature miR-21 levels”; the “effect on pre-miR-21 levels” value was “cleaved and decreased pre-miR-21 levels”. Besides, in the test with pri-miR-21 RNA, the “RT stops induced in pri-miR-21” value is listed as “induced an RT stop at the indicated sites”. Also, the “reads that stop at the second A (3′)” value with pri-miR-21 (3/21 reads) turned out to be 14%. Further, the “reads that stop at the third A (3′)” value with pri-miR-21 (6/21 reads) came out at 29%. Besides, the “reads that stop at the first C (5′)” value with pri-miR-21 (12/21 reads) amounted to 57%.
